Measured values taken from patent US6127131A (Synaptic Pharmaceutical Corporation, priority 1998, dated 2000).

Columns and labels:
[1] = molecular target: T1, glycine transporter encoded by rB20a (Rattus norvegicus, UniProt P28572); experiment: Competition for [3H]glycine uptake by COS-7 cells transfected with rB20a; assay type: cell-based; details: agents at 1 mM (Table 1)
T1 construct: expressed in transfected cells; host or cells: COS-7 cells, transient transfection with pSVL-rB20a
T1 sequence (P28572 1-638): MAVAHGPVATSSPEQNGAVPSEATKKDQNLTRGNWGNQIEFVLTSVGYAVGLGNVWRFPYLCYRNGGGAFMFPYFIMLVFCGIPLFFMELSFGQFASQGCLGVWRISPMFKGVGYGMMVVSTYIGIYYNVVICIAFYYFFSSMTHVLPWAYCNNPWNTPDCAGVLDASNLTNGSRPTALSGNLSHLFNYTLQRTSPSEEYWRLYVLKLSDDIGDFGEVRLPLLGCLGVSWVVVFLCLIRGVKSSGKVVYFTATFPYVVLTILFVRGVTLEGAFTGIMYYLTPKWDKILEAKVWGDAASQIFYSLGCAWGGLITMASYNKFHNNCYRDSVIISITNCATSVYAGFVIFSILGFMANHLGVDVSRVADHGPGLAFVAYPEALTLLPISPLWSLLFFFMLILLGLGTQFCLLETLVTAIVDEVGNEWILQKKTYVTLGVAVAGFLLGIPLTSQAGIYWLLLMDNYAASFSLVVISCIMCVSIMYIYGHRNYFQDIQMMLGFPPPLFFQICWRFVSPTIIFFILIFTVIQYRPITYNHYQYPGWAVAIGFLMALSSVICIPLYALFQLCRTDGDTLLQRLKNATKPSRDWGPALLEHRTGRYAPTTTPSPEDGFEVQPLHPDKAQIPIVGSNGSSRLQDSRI
Protocol: These two clones were constructed into a full-length clone (designated rB20a) by ligation at their internal Nco I sites and then cloned into the eukaryotic expression vector pSVL (Pharmacia LKB Biotechnology, Piscataway, N.J.). Transient transfection of COS cells was carried out using DEAE-dextran with DMSO according to the method of Lopata et al. (1984) with minor modifications. COS cells were grown in six-well plates (37° C.,5%CO2) in high glucose Dulbecco's modified Eagle medium supplemented with 10% bovine calf serum, 100 U/ml penicillin G, and 100 μg/ml streptomycin sulfate. Cells were routinely used two days after transfection for transport studies.
(§1) Plates were incubated at 37° C. for 10 or 20 minutes, then washed rapidly 3× with HBS. Cells were solubilized with 0.05% sodium deoxycholate/0.1N NaOH (1 ml/well), 0.5 ml aliquots were removed, neutralized with 1N HCl, and radioactivity was determined by scintillation counting. Protein was quantified in an aliquot of the solubilized cells with the Bradford Reagent (Biorad, Richmond, Calif.), according to the manufacturer's directions.
Nonspecific uptake was determined with 1 mM

[2] = molecular target: T2, transporter encoded by rB20a (Rattus norvegicus, UniProt P28572); experiment: Screen of COS cells transfected with rB20a for transport of radiolabeled neurotransmitters and amino acids; assay type: cell-based; details: data not shown
T2 sequence (P28572 1-638): T1 sequence (P28572 1-638)
Protocol: as §1

Compound	competition for [3H]glycine uptake (in words) [1]	effect of rB20a expression on uptake of the radiolabeled substrate [2]
N[C@@H](CO)C(=O)O [L-serine]	Neither α-(methylamino) isobutyric acid (1 mM), a substrate for system A, nor L-serine (1 mM), a substrate for system ASC, significantly competed	
CNC(C)(C)C(=O)O [α-(methylamino) Isobutyric acid]	Neither α-(methylamino) isobutyric acid (1 mM), a substrate for system A, nor L-serine (1 mM), a substrate for system ASC, significantly competed	
[^3 H]glutamate		did not significantly alter
